Results on 21 compounds are retold here after PMC7915867, “Discovery of a Small Molecule Inhibitor of Human Adenovirus Capable of Preventing Escape from the Endosome” (International Journal of Molecular Sciences, 2021).

Where two headings read alike, the source gives them in different places.

One series relates to wild-type HAdV5. The experiment in a line: Virus yield reduction (virus burst assay). The format is cell-based, human adenovirus. The following applies: A549 cells, HAdV 100 vp/cell, 48 h; niclosamide 5 μM, 16 at 10-fold IC50; versus DMSO. The method, then: After 48 h, cells were harvested and subjected to three rounds of freeze/thaw. Serial dilutions of clarified lysates were titrated on A549 cells (3 × 10^4 cells/well), and we calculated TCID50 values using an endpoint dilution method.

The subject of series [1] is HAdV5-GFP. As to the kind of experiment: microbe, parasite or virus in culture. The format is cell-based, human adenovirus. The following applies: for inhibition at 10 µM / IC50: Human adenovirus sp.; for inhibition at 10 µM: read-out: Plaque Assay (10 μM) (%) Inhibition; for IC50: read-out: Plaque Assay IC50; for Selectivity Index (SI): ratio of CC50 to IC50 in plaque assay; for Plaque Assay (10 μM) (%) Inhibition: HAdV5-GFP, low MOI (0.06 vp/cell), 293β5 cell line. The method, then: Compounds were measured at concentrations of 10 μM and in a dose−response assay ranging from 10 to 0.3 μM using low MOI infections (0.06 vp/cell) in a plaque assay. […] Cells were infected with HAdV5-GFP (0.06 vp/cell) and rocked for 2 h at 37 °C, when cells reached 80%–90% confluency. When the incubation was finished, the inoculum was removed followed by washing the cells once with PBS. […] The compounds were also added to the mixture in concentrations ranging from 10 to 0.3 μM. After incubation for 7 days at 37 °C, we scanned plates with a Typhoon FLA 9000 imager (GE Healthcare Life Sciences, MA, USA) and quantified plaques with ImageJ [47].

Another series relates to HAdV5. The experiment in a line: HAdV-mediated endosome disruption (α-sarcin co-delivery assay). The format is cell-based, human adenovirus. The following applies: A549 cells, niclosamide 5 μM, independent of virus concentration. As to the method: A549 cells (~20,000 cells/well) were incubated in DMEM without cysteine or methionine supplemented with 10% dialyzed FBS [DMEM (−)] in black 96-well plates for 1 h before infection. […] The medium was then removed and replaced with 50 μL DMEM (−) containing 0.1 mg/mL α-sarcin (Santa Cruz Biotechnology, Dallas, TX, USA) and the virus and drug mixtures. After 2 h at 37 °C, the Click-iT HPG Alexa Fluor 488 Protein Synthesis Assay Kits (Invitrogen, MA, USA) were used to analyze protein synthesis according to the manufacturer’s instructions. The incorporation of the amino acid analog of methionine L-homopropargylglycine (HPG) containing Alexa Fluor 488 azide was measured using a Typhoon 9410 imager (GE Healthcare Life Sciences, MA, USA) and calculated subtracting the background level of the control well containing L-homopropargylglycine (HPG) and α-sarcin but not virus (100% incorporation).

For another series, the system named is HAdV-5 DNA replication. The experiment in a line: HAdV DNA quantification by real-time PCR (DNA replication). The following applies: A549 cells, 24 h, HAdV5 100 vp/cell; 16 at 7.8 μM (10-fold IC50), niclosamide 5 μM; versus DMSO. The series is classed as cell-based, human adenovirus. As to the method:
All samples were carried out in duplicate. After incubation for 24 h at 37 °C, DNA was purified from the cell lysate with the E.Z.N.A.® Tissue DNA Kit (Omega Bio-tek, Norcross, GA, USA) following the manufacturer’s instructions. TaqMan primers and probes for a common region of the HAdV5 hexon were designed with the GenScript Real-Time PCR (TaqMan) Primer Design software (GenScript, Leiden, Netherlands). Oligonucleotides sequences were: AQ1: 5′-GCCACGGTGGGGTTTCTAAACTT-3′; AQ2: 5′-GCCCCAGTGGTCTTACATGCACAT-3′; Probe: 6-FAM-5′-TGCACCAGACCCGGGCTCAGGTACTCCGA-3′-TAMRA. Real-time PCR mixtures contained 9.5 μL of the purified DNA, AQ1 and AQ2 at a concentration of 200 nM each and Probe at a concentration of 50 nM in a total volume of 25 μL. The PCR cycling protocol was 95 °C for 3 min followed by 40 cycles of 95 °C for 10 s and 60 °C for 30 s. Human glyceraldehyde-3-phosphate dehydrogenase (GAPDH) gene was applied as internal control. Oligonucleotides sequences for GAPDH and conditions were previously reported by Rivera et al..
For quantification, gene fragments from hexon and GAPDH were cloned into the pGEM-T Easy vector (Promega, MA, USA), and known concentrations of template were used to produce a standard curve in parallel for each experiment. All assays were done in thermal cycler LightCycler® 96 System (Roche, Basel, Switzerland).

A further series relates to A549 cells. The settings on record: cited from earlier work.
Series [2] relates to HAdV5-GFP. The following applies: read-out: IC50 (anti-HAdV); cited from earlier work.
Series [3] in a line: Cytotoxicity assay (AlamarBlue). The format is cell-based. The settings on record: human, A549 cells, A549 cell line. The method, then:
The cytotoxicity of these derivatives was tested by commercial kit AlamarBlue® (Ref. DAL1025, Invitrogen, MA, USA). […] The cytotoxic concentration 50 (CC50) value was obtained by using the statistical package GraphPad Prism. This assay was performed in duplicate.

In the case of `O=C(Nc1ccc([N+](=O)[O-])cc1Cl)c1cc(Cl)ccc1O` [Compound 3, niclosamide, reference compound], in the series with wild-type HAdV5, the “Virus Yield Reduction” value is on record as 82 ± 35 fold. In the series on HAdV5-GFP [1], the inhibition at 10 µM was determined as 100% and the IC50 stood at 0.6 ± 0.05 µM. Also, in the series on HAdV5, the “HPG incorporation compared to control without α-sarcin” value was “under 50%”. Also, the “Inhibition of HAdV-5 DNA replication (qPCR)” value in the series with HAdV-5 DNA replication is “prevented any detectable DNA replication”.
For `O=C(Nc1cc(F)cc(C(F)(F)F)c1)c1cc(Cl)ccc1O` [Compound 4], in the series with A549 cells, the CC50 is 120 µM. Moreover, in the series on HAdV5-GFP [2], the IC50 was 0.18 µM.
For `CC1(Nc2ccc(NC(=O)c3cc(Cl)ccc3O)c(Cl)c2)CCCC1` [Compound 5], the CC50 with A549 cells is 157 µM. Besides, in the series with HAdV5-GFP [2], the IC50 was 0.27 µM.
Regarding `CC(C)C(NC(=O)c1cc(Cl)ccc1O)C(=O)Nc1ccc([N+](=O)[O-])cc1Cl` (stereo not drawn) [Compound 6], the CC50 with A549 cells was 200 µM. In the series with HAdV5-GFP [2], the IC50 was 0.45 µM.
As for `O=C(NC1CCCC1)c1cc(Cl)ccc1O` [Compound 11, 5-Chloro-N-cyclopentyl-2-hydroxybenzamide], in the series on HAdV5-GFP [1], the inhibition at 10 µM worked out at 22.6 ± 7.4%.
`O=C(NC1CCCCC1)c1cc(Cl)ccc1O` [Compound 12, 5-Chloro-N-cyclohexyl-2-hydroxybenzamide]: in the series on HAdV5-GFP [1], the inhibition at 10 µM was 57.6 ± 0.2%.
In turn, `O=C(NC1CCCCCC1)c1cc(Cl)ccc1O` [Compound 13, 5-Chloro-N-cycloheptyl-2-hydroxybenzamide] displayed a cytotoxic concentration (CC50) at 48 h in series [3] of 30.9 ± 6.3 µM. Also, in the series with HAdV5-GFP [1], the inhibition at 10 µM stood at 99.6 ± 0.2%, the IC50 turned out to be 4.7 ± 0.1 µM and the “Selectivity Index (SI)” value worked out at 6.6.
In the case of `O=C(NC1CCOCC1)c1cc(Cl)ccc1O` [Compound 14, 5-Chloro-2-hydroxy-N-(tetrahydro-2H-pyran-4-yl)benzamide], in the series on HAdV5-GFP [1], the “Plaque Assay (10 μM) (%) Inhibition” value was “completely inactive” and the inhibition at 10 µM was 0%.
For the compound `CC(C)(C)OC(=O)N1CCC(NC(=O)c2cc(Cl)ccc2O)CC1` [Compound 15, tert-Butyl 4-(5-chloro-2-hydroxybenzamido)piperidine-1-carboxylate], the inhibition at 10 µM in the series on HAdV5-GFP [1] amounted to 52.2 ± 7.1%.
Take `C[C@H](NC(=O)c1cc(Cl)ccc1O)C1CCCCC1` [Compound 17, (S)-5-Chloro-N-(1-cyclohexylethyl)-2-hydroxybenzamide]: half-maximal cytotoxicity in series [3] (CC50 at 48 h) was put at 23 ± 1.3 µM. For the same compound, in the series with HAdV5-GFP [1], the inhibition at 10 µM came out at 100%, the IC50 was 0.51 ± 0.14 µM and the “Selectivity Index (SI)” value is on record as 45.1.
Turning to `O=C(NCC1CCOCC1)c1cc(Cl)ccc1O` [Compound 18, 5-Chloro-2-hydroxy-N-((tetrahydro-2H-pyran-4-yl)methyl)benzamide], in the series on HAdV5-GFP [1], the “Plaque Assay (10 μM) (%) Inhibition” value was “no anti-HAdV activity” and the inhibition at 10 µM amounted to 0%.
Turning to `CC(C)(C)OC(=O)N1CCC(CNC(=O)c2cc(Cl)ccc2O)CC1` [Compound 19, tert-Butyl 4-((5-chloro-2-hydroxybenzamido)methyl)piperidine-1-carboxylate], the inhibition at 10 µM with HAdV5-GFP [1] was 88.5 ± 1.9%.
For `O=C(NCCC1CCCCC1)c1cc(Cl)ccc1O` [Compound 20, 5-Chloro-N-(2-cyclohexylethyl)-2-hydroxybenzamide], the CC50 at 48 h in series [3] was determined as 66.3 ± 7.9 µM. Further, in the series with HAdV5-GFP [1], the inhibition at 10 µM was 97.8 ± 1.7%, the half-inhibitory concentration (IC50) was 1 ± 0.1 µM and the “Selectivity Index (SI)” value is recorded as 64.3.
As for `CC(C)(C)OC(=O)N1CCN(CCNC(=O)c2cc(Cl)ccc2O)CC1` [Compound 21, tert-Butyl 4-(2-(5-chloro-2-hydroxybenzamido)ethyl)piperazine-1-carboxylate], in the series with HAdV5-GFP [1], the “Plaque Assay (10 μM) (%) Inhibition” value was “neither piperazine analogue (21 and 22) nor the morpholine analogue 23 showed meaningful inhibitory activity”; the inhibition at 10 µM was 22.2 ± 13.2%.
Take `CN1CCN(CCNC(=O)c2cc(Cl)ccc2O)CC1` [Compound 22, 5-Chloro-2-hydroxy-N-(2-(4-methylpiperazin-1-yl)ethyl)benzamide]: in the series on HAdV5-GFP [1], the “Plaque Assay (10 μM) (%) Inhibition” value was “neither piperazine analogue (21 and 22) nor the morpholine analogue 23 showed meaningful inhibitory activity”; the inhibition at 10 µM was 0%.
Consider `O=C(NCCN1CCOCC1)c1cc(Cl)ccc1O` [Compound 23, 5-Chloro-2-hydroxy-N-(2-morpholinoethyl)benzamide], for which, in the series on HAdV5-GFP [1], the “Plaque Assay (10 μM) (%) Inhibition” value is “neither piperazine analogue (21 and 22) nor the morpholine analogue 23 showed meaningful inhibitory activity”; the inhibition at 10 µM came out at 0%.
For the compound `CCCCCCNC(=O)c1cc(Cl)ccc1O` [Compound 24, 5-Chloro-N-hexyl-2-hydroxybenzamide], the CC50 at 48 h in series [3] amounted to 23.8 ± 3.1 µM. Moreover, in the series with HAdV5-GFP [1], the inhibition at 10 µM is 98.5 ± 2.1%, the half-maximal inhibitory concentration (IC50) was determined as 3.73 ± 0.64 µM and the “Selectivity Index (SI)” value came out at 6.4.
As to `CC(C)(C)OC(=O)NCCCCNC(=O)c1cc(Cl)ccc1O` [Compound 25, tert-Butyl (4-(5-chloro-2-hydroxybenzamido)butyl)carbamate], the inhibition at 10 µM in the series with HAdV5-GFP [1] was determined as 74 ± 5.7%.
With `O=C(c1cc(Cl)ccc1O)N1CCCCC1` [Compound 26, (5-Chloro-2-hydroxyphenyl)(piperidin-1-yl)methanone], in the series on HAdV5-GFP [1], the inhibition at 10 µM was determined as 0%.
The same measure, in the same setting: for `CC(=O)N1CCN(C(=O)c2cc(Cl)ccc2O)CC1` [Compound 27, 1-(4-(5-Chloro-2-hydroxybenzoyl)piperazin-1-yl)ethanone] the value was 0%; for `CN1CCN(C(=O)c2cc(Cl)ccc2O)CC1` [Compound 28, (5-Chloro-2-hydroxyphenyl)(4-methylpiperazin-1-yl)methanone], 0%.
